Measurements reported in the CheMixHub ionic liquid set.
± gives the uncertainty stated by the source.

Assay: xn = mol fraction of the nth substance listed
Conditions: for electrical conductivity: 298 K

For `CC(=O)[O-].CCC[N+]1(C)CCCC1` + CC#N, the electrical conductivity (101 kPa, x2 = 0.75) was 3.18 ± 0.06 S/m, the electrical conductivity (101 kPa, x2 = 0.775) was 3.51 ± 0.07 S/m and the electrical conductivity (101 kPa, x2 = 0.799) was 3.72 ± 0.07 S/m. It also gave an electrical conductivity (101 kPa, x2 = 0.825) of 3.86 ± 0.08 S/m, an electrical conductivity (101 kPa, x2 = 0.849) of 3.9 ± 0.08 S/m and an electrical conductivity (101 kPa, x2 = 0.875) of 3.92 ± 0.08 S/m. For the same molecule, the electrical conductivity (101 kPa, x2 = 0.9) was 3.85 ± 0.08 S/m, the electrical conductivity (101 kPa, x2 = 0.911) was 3.75 ± 0.08 S/m and the electrical conductivity (101 kPa, x2 = 0.921) was 3.63 ± 0.07 S/m. The electrical conductivity (101 kPa, x2 = 0.94) was 3.35 ± 0.07 S/m.
`CC(O)C(=O)[O-].CCC[N+]1(C)CCCC1` + CC#N showed an electrical conductivity (101 kPa, x2 = 0.724) of 2.67 ± 0.05 S/m, an electrical conductivity (101 kPa, x2 = 0.749) of 2.89 ± 0.06 S/m and an electrical conductivity (101 kPa, x2 = 0.801) of 3.19 ± 0.06 S/m. The electrical conductivity (101 kPa, x2 = 0.825) was 3.33 ± 0.07 S/m, the electrical conductivity (101 kPa, x2 = 0.849) was 3.54 ± 0.07 S/m and the electrical conductivity (101 kPa, x2 = 0.873) was 3.56 ± 0.07 S/m. For the same molecule, the electrical conductivity (101 kPa, x2 = 0.898) was 3.5 ± 0.07 S/m, the electrical conductivity (101 kPa, x2 = 0.91) was 3.5 ± 0.07 S/m and the electrical conductivity (101 kPa, x2 = 0.921) was 3.37 ± 0.07 S/m. The electrical conductivity (101 kPa, x2 = 0.929) was 3.24 ± 0.07 S/m.
Molecule `CC(O)C(=O)[O-].CCC[N+]1(C)CCCCC1` + CC#N has an electrical conductivity (101 kPa, x2 = 0.77) of 2.16 ± 0.04 S/m, an electrical conductivity (101 kPa, x2 = 0.823) of 2.56 ± 0.05 S/m and an electrical conductivity (101 kPa, x2 = 0.832) of 2.64 ± 0.05 S/m. It also gave an electrical conductivity (101 kPa, x2 = 0.838) of 2.76 ± 0.06 S/m, an electrical conductivity (101 kPa, x2 = 0.846) of 2.85 ± 0.06 S/m and an electrical conductivity (101 kPa, x2 = 0.851) of 2.85 ± 0.06 S/m. For the same molecule, the electrical conductivity (101 kPa, x2 = 0.859) was 2.88 ± 0.06 S/m, the electrical conductivity (101 kPa, x2 = 0.863) was 2.92 ± 0.06 S/m and the electrical conductivity (101 kPa, x2 = 0.869) was 2.97 ± 0.06 S/m. It also gave an electrical conductivity (101 kPa, x2 = 0.872) of 2.98 ± 0.06 S/m, an electrical conductivity (101 kPa, x2 = 0.877) of 2.98 ± 0.06 S/m and an electrical conductivity (101 kPa, x2 = 0.881) of 3.01 ± 0.06 S/m. For the same molecule, the electrical conductivity (101 kPa, x2 = 0.885) was 3.03 ± 0.06 S/m, the electrical conductivity (101 kPa, x2 = 0.888) was 3.06 ± 0.06 S/m and the electrical conductivity (101 kPa, x2 = 0.891) was 3.04 ± 0.06 S/m. The electrical conductivity (101 kPa, x2 = 0.893) was 3.06 ± 0.06 S/m, the electrical conductivity (101 kPa, x2 = 0.897) was 3.09 ± 0.06 S/m and the electrical conductivity (101 kPa, x2 = 0.9) was 3.09 ± 0.06 S/m. It also gave an electrical conductivity (101 kPa, x2 = 0.907) of 3.09 ± 0.06 S/m, an electrical conductivity (101 kPa, x2 = 0.909) of 3.09 ± 0.06 S/m and an electrical conductivity (101 kPa, x2 = 0.92) of 3.04 ± 0.06 S/m. It also gave an electrical conductivity (101 kPa, x2 = 0.933) of 2.92 ± 0.06 S/m and an electrical conductivity (101 kPa, x2 = 0.952) of 2.68 ± 0.05 S/m.
Molecule `CC[n+]1ccn(C)c1.F[B-](F)(F)F` + CC#N has a viscosity (293.15 K, 100 kPa, x2 = 0.1787) of 25.2 ± 2.5 mPa·s, a viscosity (298.15 K, 100 kPa, x2 = 0.8301) of 1.14 ± 0.12 mPa·s and a viscosity (303.15 K, 101 kPa, x1 = 0.0999) of 0.71 ± 0.071 mPa·s. The viscosity (303.15 K, 101 kPa, x1 = 0.2) was 1.31 ± 0.13 mPa·s, the viscosity (303.15 K, 101 kPa, x1 = 0.2977) was 2.18 ± 0.22 mPa·s and the viscosity (303.15 K, 101 kPa, x1 = 0.3999) was 3.51 ± 0.35 mPa·s. The viscosity (303.15 K, 101 kPa, x1 = 0.4999) was 5.29 ± 0.53 mPa·s, the viscosity (303.15 K, 101 kPa, x1 = 0.5991) was 7.84 ± 0.79 mPa·s and the viscosity (303.15 K, 101 kPa, x1 = 0.7013) was 11 ± 1.1 mPa·s. The viscosity (303.15 K, 101 kPa, x1 = 0.8003) was 15.3 ± 1.5 mPa·s, the viscosity (303.15 K, 101 kPa, x1 = 0.9009) was 21 ± 2.1 mPa·s and the viscosity (303.15 K, 101 kPa, x1 = 1) was 28 ± 2.8 mPa·s. It also gave a viscosity (313.15 K, 100 kPa, x2 = 0.2803) of 10.5 ± 1.1 mPa·s, a viscosity (313.15 K, 100 kPa, x2 = 0.3682) of 7.5 ± 0.75 mPa·s and a viscosity (313.15 K, 101 kPa, x1 = 0.0999) of 0.638 ± 0.064 mPa·s. The viscosity (313.15 K, 101 kPa, x1 = 0.2) was 1.15 ± 0.12 mPa·s, the viscosity (313.15 K, 101 kPa, x1 = 0.2977) was 1.89 ± 0.19 mPa·s and the viscosity (313.15 K, 101 kPa, x1 = 0.3999) was 2.95 ± 0.3 mPa·s. The viscosity (313.15 K, 101 kPa, x1 = 0.4999) was 4.34 ± 0.44 mPa·s, the viscosity (313.15 K, 101 kPa, x1 = 0.5991) was 6.21 ± 0.62 mPa·s and the viscosity (313.15 K, 101 kPa, x1 = 0.7013) was 8.64 ± 0.87 mPa·s. For the same molecule, the viscosity (313.15 K, 101 kPa, x1 = 0.8003) was 11.7 ± 1.2 mPa·s, the viscosity (313.15 K, 101 kPa, x1 = 0.9009) was 15.6 ± 1.6 mPa·s and the viscosity (313.15 K, 101 kPa, x1 = 1) was 20.4 ± 2.1 mPa·s. It also gave a viscosity (323.15 K, 100 kPa, x2 = 0) of 18.6 ± 1.9 mPa·s, a viscosity (323.15 K, 100 kPa, x2 = 0.2803) of 8.36 ± 0.84 mPa·s and a viscosity (323.15 K, 100 kPa, x2 = 0.3682) of 6.1 ± 0.61 mPa·s. It also gave a viscosity (323.15 K, 100 kPa, x2 = 0.7116) of 1.6 ± 0.16 mPa·s, a viscosity (323.15 K, 101 kPa, x1 = 0.0999) of 0.575 ± 0.058 mPa·s and a viscosity (323.15 K, 101 kPa, x1 = 0.2) of 1.02 ± 0.1 mPa·s. The viscosity (323.15 K, 101 kPa, x1 = 0.2977) was 1.67 ± 0.17 mPa·s, the viscosity (323.15 K, 101 kPa, x1 = 0.3999) was 2.52 ± 0.25 mPa·s and the viscosity (323.15 K, 101 kPa, x1 = 0.4999) was 3.64 ± 0.36 mPa·s. It also gave a viscosity (323.15 K, 101 kPa, x1 = 0.5991) of 5.11 ± 0.51 mPa·s, a viscosity (323.15 K, 101 kPa, x1 = 0.7013) of 6.95 ± 0.7 mPa·s and a viscosity (323.15 K, 101 kPa, x1 = 0.8003) of 9.17 ± 0.92 mPa·s. It also gave a viscosity (323.15 K, 101 kPa, x1 = 0.9009) of 12 ± 1.2 mPa·s, a viscosity (323.15 K, 101 kPa, x1 = 1) of 15.3 ± 1.5 mPa·s and a viscosity (333.15 K, 100 kPa, x2 = 0.2803) of 6.82 ± 0.69 mPa·s. It also gave a viscosity (333.15 K, 100 kPa, x2 = 0.7116) of 1.41 ± 0.14 mPa·s, a viscosity (333.15 K, 101 kPa, x1 = 0.0999) of 0.522 ± 0.052 mPa·s and a viscosity (333.15 K, 101 kPa, x1 = 0.2) of 0.917 ± 0.092 mPa·s. It also gave a viscosity (333.15 K, 101 kPa, x1 = 0.2977) of 1.48 ± 0.15 mPa·s, a viscosity (333.15 K, 101 kPa, x1 = 0.3999) of 2.2 ± 0.22 mPa·s and a viscosity (333.15 K, 101 kPa, x1 = 0.4999) of 3.13 ± 0.31 mPa·s. For the same molecule, the viscosity (333.15 K, 101 kPa, x1 = 0.5991) was 4.34 ± 0.44 mPa·s, the viscosity (333.15 K, 101 kPa, x1 = 0.7013) was 5.76 ± 0.58 mPa·s and the viscosity (333.15 K, 101 kPa, x1 = 0.8003) was 7.47 ± 0.75 mPa·s. It also gave a viscosity (333.15 K, 101 kPa, x1 = 0.9009) of 9.51 ± 0.96 mPa·s, a viscosity (333.15 K, 101 kPa, x1 = 1) of 12.1 ± 1.2 mPa·s and a viscosity (343.15 K, 100 kPa, x2 = 0.3682) of 4.28 ± 0.43 mPa·s. The viscosity (343.15 K, 100 kPa, x2 = 0.7116) was 1.26 ± 0.13 mPa·s and the viscosity (343.15 K, 100 kPa, x2 = 0.8301) was 0.719 ± 0.072 mPa·s.
